These results are taken from article PMC13510729, “Multiheme selenoenzyme essential for elemental sulfur respiration” (Science Advances, 2026).

The test concerns T1, MccSep.
T1 construct: selenoprotein read through an in-frame UGA (Sec325) joining gsu2937 and gsu2936, databases may hold it as two ORFs; C-terminal Factor Xa site and Strep-tag; expressed in G. sulfurreducens PCA delta-mccsep; five heme c per subunit; about 49 kDa; homotetramer of 200 kDa
Nature of the test: spectrophotometric oxidation of reduced methyl viologen at […] nm, allosteric sigmoidal fit. Type of test: biochemical, Geobacter sulfurreducens. Conditions: reduced methyl viologen (0.3 mM) with 0.075 mM dithionite, 2 mM CaCl2, 50 mM Bicine-NaOH pH 8.5, 30 °C, anaerobic; Hill coefficient 1.5 ± 0.1; read-out: apparent K0.5.

On to `O=[Se](O)O` [selenite], for which the Km was determined as 990 ± 40 µM.
